These results are taken from patent publication US11690377B2, “Herbicidal composition and method of use thereof” (Belchim Crop Protection NV, priority 2017, dated 2023).

In this assay the test system is SETVI - Green foxtail (Setaria viridis). As to the kind of experiment: Field trial, post-emergence weed control in corn, SETVI. It counts as in vivo. On the procedure:
Field trials were conducted in Tennessee and Illinois (USA). The crop and weed species had been seeded and/or drill sown. In the case of post-emergence evaluation, seeded and/or drill sown plants were grown to a certain growth stage before application of the active ingredients (alone or as a mixture). In the case of pre-emergence evaluation, the application of the active ingredients was carried out after the plants were seeded and/or drilled sown. The trial was in the form of a randomized complete block. The percentage of weed control was assessed in several different instances after treatment until a maximum of 42 days after treatment, by comparison with untreated control plots by visual scoring. The herbicidal action was assessed qualitatively and quantitatively. To quantify the synergic effect resulting from the combination of mesotrione and pyridate, the inventors used the methodology described by Colby, in which a synergistic effect exists when the activity of a composition comprising both active compounds is greater than the sum of the activities of the two active compounds applied individually. The expected activity for the combination of mesotrione and pyridate can be calculated by the following so-called “Colby equation” (see S. R. Colby, “Calculating Synergistic and Antagonistic Responses of Herbicide Combinations”, Weeds 1967, 15, 20-22). Pa+b=(Pa+Pb)−(Pa*Pb/100) Wherein • Pa+b is the expected percent inhibition of weed growth by the combination of mesotrione and pyridate; • Pa is the percent inhibition of weed growth induced by mesotrione; • Pb is the percent inhibition of weed growth induced by pyridate. If the actual percent inhibition of weed growth induced by the combination of mesotrione and pyridate is greater than the expected percent inhibition (Pa+b) calculated from the Colby equation, then the activity of the combination is synergistic. The below Tables represent the herbicidal performance of the composition according to the invention, and also the herbicidal performance of the active ingredients alone, in controlling specific weeds. The expected percent inhibition of weed growth (derived from the Colby's equation) and the actual (observed) percent inhibition of weed growth is also presented in order to conclude on the synergistic effect of the combination according to the invention. […]

Setting [1] is: 14 days after treatment, mesotrione 2 oz/A, pyridate 2 oz/A, combination 2 + 2 oz/A.
[2] abbreviates: 14 days after treatment, mesotrione 3 oz/A, pyridate 3 oz/A, combination 3 + 3 oz/A.
Where [3] appears, read: 21 days after treatment, mesotrione 2 oz/A, pyridate 2 oz/A, combination 2 + 2 oz/A.
[4] abbreviates: 21 days after treatment, mesotrione 3 oz/A, pyridate 3 oz/A, combination 3 + 3 oz/A.
The mark [5] stands for this setting: 38 days after treatment, mesotrione 2 oz/A, pyridate 2 oz/A, combination 2 + 2 oz/A.
[6] abbreviates: 38 days after treatment, mesotrione 3 oz/A, pyridate 3 oz/A, combination 3 + 3 oz/A.

In the case of `CCCCCCCCSC(=O)Oc1cc(Cl)nnc1-c1ccccc1` [pyridate, Pyridate], the “Mean percentage of weed control (observed)” value (“Mean percentage” for short) under setting [1] was determined as 10%; the “Mean percentage” value under setting [2] is on record as 10%; the “Mean percentage” value under setting [3] worked out at 10%; the “Mean percentage” value under setting [4] is on record as 10%; the “Mean percentage” value under setting [5] is 10%; the “Mean percentage” value under setting [6] turned out to be 10%.

For the molecule `CS(=O)(=O)c1ccc(C(=O)C2C(=O)CCCC2=O)c([N+](=O)[O-])c1` [mesotrione, Mesotrione], the “Mean percentage” value runs as follows: under setting [1], 48%; under setting [2], 58%; under setting [3], 50%; under setting [4], 60%; under setting [5], 50%; under setting [6], 60%.
